The assay deals with T1, cMET receptor tyrosine kinase (GST-cMET (969-1390)) (Homo sapiens, UniProt P08581).
T1 construct: made in house
T1 sequence (P08581 969-1390): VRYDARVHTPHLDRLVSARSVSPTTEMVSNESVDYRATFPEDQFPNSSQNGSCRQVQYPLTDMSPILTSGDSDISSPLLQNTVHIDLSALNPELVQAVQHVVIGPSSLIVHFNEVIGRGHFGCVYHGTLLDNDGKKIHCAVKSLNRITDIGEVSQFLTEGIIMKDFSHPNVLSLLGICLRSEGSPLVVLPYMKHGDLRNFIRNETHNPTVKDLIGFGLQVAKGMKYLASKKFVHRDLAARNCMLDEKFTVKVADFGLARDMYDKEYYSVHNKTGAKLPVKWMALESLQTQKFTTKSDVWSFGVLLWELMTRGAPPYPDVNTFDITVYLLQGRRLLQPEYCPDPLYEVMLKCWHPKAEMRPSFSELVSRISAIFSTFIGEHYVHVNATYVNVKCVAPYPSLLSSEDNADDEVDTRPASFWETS
The assay is described as follows: EPK cMET profiling assay (LanthaScreen TR-FRET antibody based kinase phosphorylation assay). It counts as biochemical. The note with it: purified recombinant GST-cMET (969-1390), 2 μM ATP, 50 nM Fluorescein-PolyEAY, 60 minutes at room temperature; read-out: c-Met IC50. In short, it runs like this: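 Compounds tested at eight final concentrations from 10 down to 0.003 µM against affinity-purified GST-cMET (969-1390, 0.3 nM) with 2 µM ATP and 50 nM fluorescein-PolyEAY in Tris buffer with MgCl2 and MnCl2, 1 h at room temperature. After EDTA stop, phosphoproduct detected by LanthaScreen TR-FRET with Tb-PY20 antibody, end-point measurement.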
As for `CC(c1ccc2n[nH]cc2c1)c1cnc2ccc(-c3cnn(CCO)c3)nn12` (racemic) [Example 190, (rac)-2-(4-{3-[1-(2H-Indazol-5-yl)-ethyl]-imidazo[1,2-b]pyridazin-6-yl}-pyrazol-1-yl)-ethanol], the IC50 amounted to 0.056 µM. In the case of `Cc1csc(Nc2ccc3ncc(Cc4ccc5ncccc5c4)n3n2)n1` [Example 93] it was 0.39 µM; in that of `FC(F)(F)c1cccc(-c2ccc3ncc(Cc4ccc5ncccc5c4)n3n2)c1` [Example 18, 6-[6-(3-Trifluoromethyl-phenyl)-imidazo[1,2-b]pyridazin-3-ylmethyl]-quinoline], 0.0655 µM; in that of `C[C@@H](c1ccc2ncccc2c1)c1cnc2ccc(-c3cnn(C)c3)nn12` [Example 159, 6-{(S)-1-[6-(1-Methyl-1H-pyrazol-4-yl)-imidazo[1,2-b]pyridazin-3-yl]-ethyl}-quinoline], 0.014 µM.

In the case of `Cn1cc(-c2ccc3ncc(C(O)c4ccc5ncn(C)c5c4)n3n2)cn1` (racemic) [Example 229, (rac)-(3-Methyl-3H-benzoimidazol-5-yl)-[6-(1-methyl-1H-pyrazol-4-yl)-imidazo[1,2-b]pyridazin-3-yl]-methanol], the IC50 is 0.52 µM. In the case of `Cc1nc2ccc(Cc3cnc4ccc(-c5cnn(C)c5)nn34)cc2s1` [Example 13, 3-(2-Methyl-benzothiazol-6-ylmethyl)-6-(1-methyl-1H-pyrazol-4-yl)-imidazo[1,2-b]pyridazine] it was 0.0735 µM; in that of `FC(F)(F)c1ccc(-c2ccc3ncc(Cc4ccc5ncccc5c4)n3n2)cc1` [Example 33, 6-[6-(4-Trifluoromethyl-phenyl)-imidazo[1,2-b]pyridazin-3-ylmethyl]-quinoline], 0.37 µM; in that of `Clc1ccc2ncc(Cc3ccc4nccn4c3)n2n1` [Example 74, 6-chloro-3-imidazo[1,2-a]pyridin-6-ylmethyl-imidazo[1,2-b]pyridazine], 0.2 µM. Turning to `C[C@@H](c1ccc2ncn(C)c2c1)c1cnc2ccc(-c3cnn(CCO)c3)nn12` [Example 187, 2-(4-{3-[(S)-1-(3-Methyl-3H-benzoimidazol-5-yl)-ethyl]-imidazo[1,2-b]pyridazin-6-yl}-pyrazol-1-yl)-ethanol], the IC50 came out at 0.019 µM.

`CC(=O)c1cnc2ccc(Cc3cnc4ccc(-c5cnn(C)c5)nn34)cn12` [Example 301, 1-{6-[6-(1-Methyl-1H-pyrazol-4-yl)-imidazo[1,2-b]pyridazin-3-ylmethyl]-imidazo[1,2-a]pyridin-3-yl}-ethanone]: the IC50 is 0.071 µM. For `C[C@@H](c1ccc2ncccc2c1)c1cnc2ccc(Cl)nn12` [Example 273, 6-[(S)-1-(6-Chloro-imidazo[1,2-b]pyridazin-3-yl)-ethyl]-quinoline] the value was 0.021 µM; for `CC(c1ccc2ncccc2c1Cl)c1cnc2ccc(-c3cnn(C)c3)nn12` (racemic) [Example 225, (rac)-5-Chloro-6-{1-[6-(1-methyl-1H-pyrazol-4-yl)-imidazo[1,2-b]pyridazin-3-yl]-ethyl}-quinoline], 0.025 µM; for `Cn1cc(-c2ccc3ncc(Cc4ccc5ncc(-c6cnn(C)c6)n5c4)n3n2)cn1` [Example 307, 6-(1-Methyl-1H-pyrazol-4-yl)-3-[3-(1-methyl-1H-pyrazol-4-yl)-imidazo[1,2-a]pyridin-6-ylmethyl]-imidazo[1,2-b]pyridazine], 0.32 µM. In the case of `Cc1cn(-c2ccc3ncc(Cc4ccc5ncccc5c4)n3n2)cn1` [Example 118, 6-[6-(4-Methyl-imidazol-1-yl)-imidazo[1,2-b]pyridazin-3-ylmethyl]-quinoline] it was 0.22 µM; in that of `CC(c1ccc2c(c1)CCCN2)c1cnc2ccc(-c3cnn(C)c3)nn12` (racemic) [Example 156, (rac)-6-{1-[6-(1-Methyl-1H-pyrazol-4-yl)-imidazo[1,2-b]pyridazin-3-yl]-ethyl}-1,2,3,4-tetrahydroquinoline], 0.19 µM. In the case of `c1cnc2ccc(Cc3cnc4ccc(N5CCOCC5)nn34)cc2c1` [Example 84, 6-(6-Morpholin-4-yl-imidazo[1,2-b]pyridazin-3-ylmethyl)-quinoline] it was 0.049 µM; in that of `Clc1ccc(-c2ccc3ncc(Cc4ccc5ncccc5c4)n3n2)cn1` [Example 47, 6-[6-(6-Chloro-pyridin-3-yl)-imidazo[1,2-b]pyridazin-3-ylmethyl]-quinoline], 0.1 µM; in that of `Cn1cc(-c2ccc3ncc(Cc4c[nH]c5ncccc45)n3n2)cn1` [Example 199, 6-(1-Methyl-1H-pyrazol-4-yl)-3-(1H-pyrrolo[2,3-b]pyridin-3-ylmethyl)-imidazo[1,2-b]pyridazine], 0.0355 µM.

Consider `Cn1cc(-c2ccc3ncc(Cc4ccc5[nH]cnc5c4)n3n2)cn1` [Example 162, 3-(1H-Benzoimidazol-5-ylmethyl)-6-(1-methyl-1H-pyrazol-4-yl)-imidazo[1,2-b]pyridazine], for which the IC50 stood at 0.034 µM.

On to `Cn1cc(-c2ccc3ncc(Cc4ccc5ncc(Cl)n5c4)n3n2)cn1` [Example 298, 3-(3-Chloro-imidazo[1,2-a]pyridin-6-ylmethyl)-6-(1-methyl-1H-pyrazol-4-yl)-imidazo[1,2-b]pyridazine], for which the IC50 was 0.13 µM.

Take `CNC1CCN(c2ccc3ncc(Cc4cc5cccnc5cc4F)n3n2)C1` (racemic) [Example 260, (rac)-{1-[3-(7-fluoro-quinolin-6-ylmethyl)-imidazo[1,2-b]pyridazin-6-yl]-pyrrolidin-3-yl}-methylamine]: the IC50 stood at 0.0052 µM. Consider `OCCn1cc(-c2ccc3ncc(Cc4ccc5ncccc5c4)n3n2)cn1` [Example 210, 2-[4-(3-Quinolin-6-ylmethyl-imidazo[1,2-b]pyridazin-6-yl)-pyrazol-1-yl]-ethanol], for which the half-maximal inhibitory concentration (IC50) amounted to 0.052 µM. In the case of `Cn1cc(-c2ccc3ncc(Cc4ccc5ncc(C(O)CO)n5c4)n3n2)cn1` (centres unmarked) [Example 304, 1-{6-[6-(1-Methyl-1H-pyrazol-4-yl)-imidazo[1,2-b]pyridazin-3-ylmethyl]-imidazo[1,2-a]pyridin-3-yl}-ethane-1,2-diol] it was 0.33 µM; in that of `Fc1cc2ncccc2cc1Cc1cnc2ccc(-c3cnn(CCN4CCCC4)c3)nn12` [Example 231, 7-Fluoro-6-{6-[1-(2-pyrrolidin-1-yl-ethyl)-1H-pyrazol-4-yl]-imidazo[1,2-b]pyridazin-3-ylmethyl}-quinoline], 0.026 µM; in that of `c1cnc2ccc(Cc3cnc4ccc(-c5ccn[nH]5)nn34)cc2c1` [Example 69, 6-[6-(2H-Pyrazol-3-yl)-imidazo[1,2-b]pyridazin-3-ylmethyl]-quinoline], 0.82 µM.

With `c1cnc2ccc(Cc3cnc4ccc(-c5cnc6ccccc6c5)nn34)cc2c1` [Example 39, 6-(6-Quinolin-3-yl-imidazo[1,2-b]pyridazin-3-ylmethyl)-quinoline], the IC50 amounted to 0.072 µM. In the case of `CN(C)C1CCN(c2ccc3ncc(Cc4ccc5ncccc5c4)n3n2)CC1` [Example 86, Dimethyl-[1-(3-quinolin-6-ylmethyl-imidazo[1,2-b]pyridazin-6-yl)-piperidin-4-yl]-amine] it was 0.16 µM. For `Cn1cc(-c2ccc3ncc(Cc4ccc5ncccc5c4F)n3n2)cn1` [Example 160, 5-Fluoro-6-[6-(1-methyl-1H-pyrazol-4-yl)-imidazo[1,2-b]pyridazin-3-ylmethyl]-quinoline] the value was 0.012 µM; for `Cn1cc(-c2ccc3ncc(Cc4cc5cn[nH]c5cc4F)n3n2)cn1` [Example 167, 3-(6-Fluoro-1H-indazol-5-ylmethyl)-6-(1-methyl-1H-pyrazol-4-yl)-imidazo[1,2-b]pyridazine], 0.006 µM; for `COc1ccc(Cc2cnc3ccc(-c4cnn(C)c4)nn23)cc1` [Example 4, 3-(4-methoxy-benzyl)-6-(1-methyl-1H-pyrazol-4-yl)-imidazo[1,2-b]pyridazine], 0.28 µM. Take `Cn1cc(-c2ccc3ncc(Cc4ccc5ncsc5c4)n3n2)cn1` [Example 12, 3-Benzothiazol-6-ylmethyl-6-(1-methyl-1H-pyrazol-4-yl)-imidazo[1,2-b]pyridazine]: the IC50 came out at 0.0325 µM. As to `CC(c1c(F)cc2ncccc2c1F)c1cnc2ccc(-c3cnn(CCO)c3)nn12` (racemic) [Example 182, (rac)-2-(4-{3-[1-(5,7-Difluoro-quinolin-6-yl)-ethyl]-imidazo[1,2-b]pyridazin-6-yl}-pyrazol-1-yl)ethanol], the IC50 stood at 0.003 µM. For `CCn1cc(-c2ccc3ncc(Cc4cc5cccnc5cc4Cl)n3n2)cn1` [Example 242, 7-Chloro-6-[6-(1-ethyl-1H-pyrazol-4-yl)-imidazo[1,2-b]pyridazin-3-ylmethyl]-quinoline], the IC50 was determined as 0.086 µM. For `Cn1cc(-c2ccc3ncc(Cc4cc5cccnc5cc4C(F)(F)F)n3n2)cn1` [Example 169, 6-[6-(1-Methyl-1H-pyrazol-4-yl)-imidazo[1,2-b]pyridazin-3-ylmethyl]-7-trifluoromethyl-quinoline] the value was 0.4 µM; for `CC(c1ccc2nccn2c1)c1cnc2ccc(-c3cnn(C)c3)nn12` (racemic) [Example 293, (rac)-3-(1-Imidazo[1,2-a]pyridin-6-yl-ethyl)-6-(1-methyl-1H-pyrazol-4-yl)-imidazo[1,2-b]pyridazine], 0.023 µM. Turning to `c1cnc2ccc(Cc3cnc4ccc(NC5CCCCCCC5)nn34)cc2c1` [Example 97, Cyclooctyl-(3-quinolin-6-ylmethyl-imidazo[1,2-b]pyridazin-6-yl)-amine], the IC50 worked out at 0.61 µM. In the case of `CS(=O)(=O)c1cccc(Nc2ccc3ncc(Cc4ccc5ncccc5c4)n3n2)c1` [Example 139, (3-Methanesulfonyl-phenyl)-(3-quinolin-6-ylmethyl-imidazo[1,2-b]pyridazin-6-yl)-amine] it was 0.13 µM. In the case of `C[C@@H](c1ccc2[nH]ncc2c1)c1cnc2ccc(-c3cnn(C)c3)nn12` [Example 195, 3-[(S)-1-(2H-Indazol-5-yl)-ethyl]-6-(1-methyl-1H-pyrazol-4-yl)-imidazo[1,2-b]pyridazine] it was 0.014 µM.

The values are drawn from US8822468B2 (Novartis AG, priority 2008, dated 2014).
